We go through 2 compounds from publication PMC7613998, “Development of selective inhibitors of phosphatidylinositol 3-kinase C2α” (Nature Chemical Biology, 2022).

What all share (assay): biochemical
Set-up in all cases: SelectScreen Z'-LYTE purified kinase panel, per cent inhibition, mean of two points
Details in all cases: (μM)=Km app

Test [1] concerns the target ABL1 T315I (Homo sapiens, UniProt P00519, T315I).
The target in test [2] is T1, ACVR1B (ALK4) (Homo sapiens, UniProt P36896).
T1 sequence (P36896 1-505): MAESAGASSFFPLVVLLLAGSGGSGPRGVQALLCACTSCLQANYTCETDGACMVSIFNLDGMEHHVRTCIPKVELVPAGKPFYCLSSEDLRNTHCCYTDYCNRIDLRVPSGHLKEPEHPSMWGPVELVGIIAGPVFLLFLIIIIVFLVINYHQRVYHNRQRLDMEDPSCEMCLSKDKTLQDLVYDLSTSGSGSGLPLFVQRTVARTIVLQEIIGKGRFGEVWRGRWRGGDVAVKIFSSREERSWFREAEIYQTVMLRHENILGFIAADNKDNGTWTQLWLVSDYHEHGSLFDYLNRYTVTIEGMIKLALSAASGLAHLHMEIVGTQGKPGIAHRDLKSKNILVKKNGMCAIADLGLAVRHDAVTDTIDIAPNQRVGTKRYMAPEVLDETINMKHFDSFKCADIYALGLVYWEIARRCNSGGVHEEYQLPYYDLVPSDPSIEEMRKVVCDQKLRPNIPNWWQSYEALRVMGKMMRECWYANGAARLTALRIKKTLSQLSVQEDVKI

For test [3], the target named is AKT1 (PKB alpha) (Homo sapiens, UniProt P31749).
Sequence of AKT1 (PKB alpha) (P31749 whole entry): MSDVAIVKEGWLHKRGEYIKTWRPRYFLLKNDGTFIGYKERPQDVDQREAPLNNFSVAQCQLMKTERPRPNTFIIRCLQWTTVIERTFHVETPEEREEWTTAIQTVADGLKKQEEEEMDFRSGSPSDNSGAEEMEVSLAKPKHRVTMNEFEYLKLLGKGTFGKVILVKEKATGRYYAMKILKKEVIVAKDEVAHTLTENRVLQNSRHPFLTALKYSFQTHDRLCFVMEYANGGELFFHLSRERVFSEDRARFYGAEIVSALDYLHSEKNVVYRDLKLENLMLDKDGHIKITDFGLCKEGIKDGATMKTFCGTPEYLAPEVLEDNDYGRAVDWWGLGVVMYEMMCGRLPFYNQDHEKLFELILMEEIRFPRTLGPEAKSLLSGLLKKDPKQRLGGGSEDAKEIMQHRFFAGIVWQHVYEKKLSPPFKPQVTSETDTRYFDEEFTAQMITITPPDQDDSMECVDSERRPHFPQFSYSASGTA
Test [4] deals with T2, CHEK1 (CHK1) (Homo sapiens, UniProt O14757).
T2 sequence (O14757 1-476): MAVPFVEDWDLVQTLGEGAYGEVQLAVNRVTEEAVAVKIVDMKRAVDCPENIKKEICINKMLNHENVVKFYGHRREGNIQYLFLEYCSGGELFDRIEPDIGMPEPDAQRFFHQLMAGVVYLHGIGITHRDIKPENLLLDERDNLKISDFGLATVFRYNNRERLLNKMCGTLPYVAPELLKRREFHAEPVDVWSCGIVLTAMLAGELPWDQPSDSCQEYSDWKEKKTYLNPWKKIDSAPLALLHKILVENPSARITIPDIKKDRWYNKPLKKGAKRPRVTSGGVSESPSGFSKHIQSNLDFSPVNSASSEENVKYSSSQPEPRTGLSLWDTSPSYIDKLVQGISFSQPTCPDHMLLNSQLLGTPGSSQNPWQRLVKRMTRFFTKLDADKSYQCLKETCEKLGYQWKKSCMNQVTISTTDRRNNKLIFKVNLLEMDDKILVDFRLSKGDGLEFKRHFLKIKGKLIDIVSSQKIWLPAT

Test [5] has as its target FGFR3 (Homo sapiens, UniProt P22607).
The target in test [6] is T3, FLT3 (Homo sapiens, UniProt P36888).
T3 sequence (P36888 1-993): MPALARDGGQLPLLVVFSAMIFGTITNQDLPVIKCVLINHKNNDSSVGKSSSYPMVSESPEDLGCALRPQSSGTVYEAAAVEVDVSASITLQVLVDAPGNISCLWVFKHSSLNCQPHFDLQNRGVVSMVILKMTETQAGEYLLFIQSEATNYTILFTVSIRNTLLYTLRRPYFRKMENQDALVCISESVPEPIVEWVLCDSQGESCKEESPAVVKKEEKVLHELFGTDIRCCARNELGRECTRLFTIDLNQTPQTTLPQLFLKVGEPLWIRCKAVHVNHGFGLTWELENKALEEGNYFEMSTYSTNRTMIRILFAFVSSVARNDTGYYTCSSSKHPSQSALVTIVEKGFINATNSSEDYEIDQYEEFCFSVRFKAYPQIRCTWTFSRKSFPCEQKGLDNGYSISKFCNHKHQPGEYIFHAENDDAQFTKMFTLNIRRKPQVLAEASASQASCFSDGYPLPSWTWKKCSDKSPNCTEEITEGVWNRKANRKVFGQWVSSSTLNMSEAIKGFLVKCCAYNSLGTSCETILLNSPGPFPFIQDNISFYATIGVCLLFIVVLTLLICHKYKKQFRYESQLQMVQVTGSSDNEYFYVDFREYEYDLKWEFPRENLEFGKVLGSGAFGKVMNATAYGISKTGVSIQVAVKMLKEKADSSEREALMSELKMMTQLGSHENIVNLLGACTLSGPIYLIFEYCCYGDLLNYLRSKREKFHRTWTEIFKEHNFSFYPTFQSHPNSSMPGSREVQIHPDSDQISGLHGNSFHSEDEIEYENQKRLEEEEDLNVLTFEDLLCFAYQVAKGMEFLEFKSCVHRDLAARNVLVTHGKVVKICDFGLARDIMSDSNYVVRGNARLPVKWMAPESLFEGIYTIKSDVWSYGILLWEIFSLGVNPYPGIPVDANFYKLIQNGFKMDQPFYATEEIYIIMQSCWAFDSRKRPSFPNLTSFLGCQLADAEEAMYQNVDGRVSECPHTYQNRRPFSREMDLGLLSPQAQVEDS

The target of test [7] is RET (Homo sapiens, UniProt P07949).
Sequence of RET (P07949 whole entry): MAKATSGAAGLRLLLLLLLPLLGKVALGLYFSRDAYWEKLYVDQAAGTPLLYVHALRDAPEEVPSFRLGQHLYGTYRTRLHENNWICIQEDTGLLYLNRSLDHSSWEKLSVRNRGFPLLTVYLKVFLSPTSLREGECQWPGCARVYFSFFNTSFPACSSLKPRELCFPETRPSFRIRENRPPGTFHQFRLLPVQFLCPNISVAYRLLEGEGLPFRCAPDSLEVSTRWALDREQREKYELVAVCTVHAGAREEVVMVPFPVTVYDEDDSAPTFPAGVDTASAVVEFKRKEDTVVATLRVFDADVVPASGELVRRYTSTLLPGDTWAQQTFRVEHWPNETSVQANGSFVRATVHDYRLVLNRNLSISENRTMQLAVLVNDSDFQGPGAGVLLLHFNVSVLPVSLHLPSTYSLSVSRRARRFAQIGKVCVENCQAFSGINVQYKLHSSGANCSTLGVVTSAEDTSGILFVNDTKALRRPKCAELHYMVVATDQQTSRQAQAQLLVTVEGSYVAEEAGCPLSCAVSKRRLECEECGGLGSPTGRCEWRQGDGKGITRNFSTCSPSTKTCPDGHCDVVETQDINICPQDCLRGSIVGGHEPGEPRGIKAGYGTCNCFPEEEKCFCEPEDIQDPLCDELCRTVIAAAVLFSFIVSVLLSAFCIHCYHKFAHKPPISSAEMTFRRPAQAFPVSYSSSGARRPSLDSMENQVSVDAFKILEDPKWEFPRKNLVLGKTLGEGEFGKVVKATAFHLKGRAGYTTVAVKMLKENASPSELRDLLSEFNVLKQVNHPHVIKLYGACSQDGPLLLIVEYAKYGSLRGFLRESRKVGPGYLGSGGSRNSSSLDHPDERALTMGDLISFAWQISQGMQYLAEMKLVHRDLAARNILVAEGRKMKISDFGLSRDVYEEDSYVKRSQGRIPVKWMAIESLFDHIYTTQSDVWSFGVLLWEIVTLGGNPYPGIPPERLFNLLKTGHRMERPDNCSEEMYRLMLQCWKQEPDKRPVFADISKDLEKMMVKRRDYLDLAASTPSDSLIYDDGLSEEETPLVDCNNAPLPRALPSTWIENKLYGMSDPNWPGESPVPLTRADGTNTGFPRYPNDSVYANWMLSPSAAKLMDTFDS
Test [8] addresses TEK (Tie2) (Homo sapiens, UniProt Q02763).

Sequence of FGFR3 (P22607 whole entry): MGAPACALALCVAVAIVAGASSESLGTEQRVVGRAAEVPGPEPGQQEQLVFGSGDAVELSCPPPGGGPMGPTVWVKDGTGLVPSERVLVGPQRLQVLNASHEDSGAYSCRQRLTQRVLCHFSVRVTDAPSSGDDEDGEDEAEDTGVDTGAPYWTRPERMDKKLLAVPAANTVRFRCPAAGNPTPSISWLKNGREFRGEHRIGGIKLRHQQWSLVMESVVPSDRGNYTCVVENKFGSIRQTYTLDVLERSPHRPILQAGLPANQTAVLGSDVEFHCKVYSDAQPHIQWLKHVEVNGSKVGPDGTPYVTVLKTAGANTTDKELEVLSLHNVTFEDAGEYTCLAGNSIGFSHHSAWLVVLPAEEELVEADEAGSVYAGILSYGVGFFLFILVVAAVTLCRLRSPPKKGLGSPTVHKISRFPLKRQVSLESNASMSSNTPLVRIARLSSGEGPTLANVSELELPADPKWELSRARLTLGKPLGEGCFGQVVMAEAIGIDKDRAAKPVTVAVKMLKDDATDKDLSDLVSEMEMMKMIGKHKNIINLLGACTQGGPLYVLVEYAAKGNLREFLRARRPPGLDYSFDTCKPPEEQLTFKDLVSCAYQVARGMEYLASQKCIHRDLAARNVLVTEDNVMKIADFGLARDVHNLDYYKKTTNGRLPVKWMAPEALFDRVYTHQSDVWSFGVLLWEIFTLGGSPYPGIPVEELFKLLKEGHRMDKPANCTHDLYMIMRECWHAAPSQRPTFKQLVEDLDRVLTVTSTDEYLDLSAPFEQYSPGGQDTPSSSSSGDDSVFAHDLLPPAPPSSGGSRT
Sequence of TEK (Tie2) (Q02763 whole entry): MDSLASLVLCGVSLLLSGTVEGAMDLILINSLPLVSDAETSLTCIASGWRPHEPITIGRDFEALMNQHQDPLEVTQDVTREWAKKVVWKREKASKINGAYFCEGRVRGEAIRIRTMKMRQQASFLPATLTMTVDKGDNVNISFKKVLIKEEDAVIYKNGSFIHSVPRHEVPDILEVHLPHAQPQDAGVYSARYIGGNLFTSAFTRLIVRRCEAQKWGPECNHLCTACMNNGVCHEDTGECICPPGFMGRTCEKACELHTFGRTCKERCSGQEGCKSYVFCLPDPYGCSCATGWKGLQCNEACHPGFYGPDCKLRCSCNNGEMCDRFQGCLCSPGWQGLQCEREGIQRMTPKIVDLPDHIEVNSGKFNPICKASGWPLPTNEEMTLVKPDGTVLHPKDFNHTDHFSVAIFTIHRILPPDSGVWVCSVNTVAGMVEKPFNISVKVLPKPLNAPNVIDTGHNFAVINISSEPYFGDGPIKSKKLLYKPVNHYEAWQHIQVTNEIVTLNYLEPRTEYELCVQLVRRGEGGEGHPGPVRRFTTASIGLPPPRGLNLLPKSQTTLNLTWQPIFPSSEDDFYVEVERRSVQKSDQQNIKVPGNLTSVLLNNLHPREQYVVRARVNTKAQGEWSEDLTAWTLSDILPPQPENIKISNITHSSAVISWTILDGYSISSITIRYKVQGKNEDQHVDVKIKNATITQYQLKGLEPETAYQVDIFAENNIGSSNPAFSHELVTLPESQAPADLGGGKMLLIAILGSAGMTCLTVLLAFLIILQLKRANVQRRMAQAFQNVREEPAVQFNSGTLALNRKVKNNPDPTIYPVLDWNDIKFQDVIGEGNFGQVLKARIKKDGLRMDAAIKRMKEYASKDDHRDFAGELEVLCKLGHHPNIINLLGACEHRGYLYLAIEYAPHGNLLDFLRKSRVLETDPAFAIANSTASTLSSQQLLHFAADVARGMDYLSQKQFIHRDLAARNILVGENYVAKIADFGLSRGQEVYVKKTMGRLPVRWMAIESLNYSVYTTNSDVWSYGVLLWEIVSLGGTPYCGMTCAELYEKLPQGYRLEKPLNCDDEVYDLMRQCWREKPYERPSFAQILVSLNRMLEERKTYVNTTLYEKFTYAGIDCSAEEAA

For orientation: inhibition means the relative decrease from the control value, in per cent. For the compound `O=C(CSc1nc2nccnc2c(=O)n1CCc1ccccc1)Nc1nccs1` [compound 1, PITCOIN1], the inhibition at 1 µM in test [1] was -2.1%; in test [2] it was 3.41%; in test [3] it was 1.93%; in test [4] it was -13.5%; in test [5], 7.72%; in test [6], 9.16%. Moreover, the results for the inhibition at 1 µM in test [7] and in test [8] were 4.11% and 7.5%, respectively. Besides, the inhibition at 3 µM in test [1] is -3.21%; in test [2] it was 5.04%; in test [3] it was 0.317%; in test [4], -11.6%; in test [5], -7.09%; in test [6], 8.82%. Also, the inhibition at 3 µM was determined as 3.69% in test [7] and 5.07% in test [8]. Also, the inhibition at 10 µM is -2.35% in test [1]; 3.29% in test [2]; 0.625% in test [3]; -3.01% in test [4]; -15.3% in test [5]; 8.33% in test [6]. Besides, the inhibition at 10 µM in test [7] was determined as 4.56%; in test [8] it was 3.39%.

Take `CS(=O)(=O)Nc1cccc(-c2csc(NC(=O)CSc3nc4nccnc4c(=O)n3CCc3ccccc3)n2)c1` [compound 3, PITCOIN3]: the inhibition at 1 µM was 1.95% in test [1]; 5.04% in test [2]; -1.18% in test [3]; -7.7% in test [4]; -8.51% in test [5]; 12.3% in test [6]. For the same compound, the inhibition at 1 µM in test [7] came to 7.87%; in test [8], 8.6%. In addition, the inhibition at 3 µM in test [1] is 3.78%; in test [2], 9.13%; in test [3] it was 7.49%; in test [4] it was -2.83%; in test [5], 0.972%; in test [6], 11%. The inhibition at 3 µM in test [7] is 5.35%; in test [8], 10.7%. In addition, the inhibition at 10 µM was 2.19% in test [1]; 4.09% in test [2]; 3.66% in test [3]; -11.2% in test [4]; 8.3% in test [5]; 12.7% in test [6]. In addition, the inhibition at 10 µM in test [7] was 5%; in test [8], 5.64%.
